# From patent publication US20150359854A1 (HUMAN MATRIX SCIENCES, LLC, priority 2012, published 2015)
# “Also recorded” adds a separate entry of the source.
# Experiments:
# [1] = test system: human aortic SMCs (AoSMCs); assay: Quantitative assay of [3H]-valine-labeled insoluble elastin; assay type: cell-based; conditions: 24-hour treatment, 0.5 to 100 nmol/L insulin
# Experimental: Cells were plated in 35-mm dishes at a density of 100,000 cells per dish and were grown to confluency. Two microcuries [3H]-valine per milliliter fresh medium supplemented with 2% FBS was added 2 hours before the indicated treatments. At the end of each experiment, the conditioned medium was collected and subjected to immunoprecipitation using anti-tropoelastin antibody. The cell layers were washed with PBS and incubated using radioimmunoprecipitation lysis buffer for 10 minutes on ice. After centrifugation, the supernatants were collected and subjected to immunoprecipitation using anti-tropoelastin antibody. The remaining pellets containing extracellular matrix were scraped and boiled in 500 μL 0.1 N NaOH for 30 minutes to solubilize all matrix components except the cross-linked elastin. Final results (counts per minute) reflecting the total amount of [3H]-valine-labeled insoluble elastin in individual cultures were normalized per their DNA contents (assessed using the Qiagen DNEASY® (DNA isolation) Tissue Kit) and expressed as percentage of control values.
# [2] = test system: fibronectin or collagen I; assay: Immunodetection of deposited fibronectin and collagen I; assay type: cell-based, human; conditions: insulin-treated cultures of both cell types
# IGF-1R = molecular target: T1, IGF-1R (Homo sapiens, UniProt P08069); assay: Immunoprecipitation and anti-phospho-Tyr blotting of IGF-1R; assay type: cell-based; conditions: 30 minutes, 0.5 to 10 nmol/L insulin or 10 nmol/L IGF-1, AoSMCs
# T1 construct: 30-minute treatment of cultured AoSMCs; endogenous in cells; host or cells: human aortic smooth muscle cells (AoSMCs), second passage
# Experimental: At the end of indicated treatments, the cultured cells were lysed as described, and 300 μL aliquots of cell extracts containing 300 μL proteins were incubated at 4° C. for 3 hours with the aliquots of protein G bound DYNABEADS® (Invitrogen Corp.) that were conjugated with either rabbit polyclonal anti-tropoelastin, goat polyclonal anti-Glut10, or rabbit polyclonal anti-S-Gal antibodies. The beads carrying the final immunoprecipitation products were then washed with PBS, resuspended in sample buffer, and boiled for 5 minutes. The released proteins were then resolved on SDS-PAGE gel and subjected to Western blotting using indicated antibodies.
# retinoblastoma protein = assay: Western blotting of retinoblastoma protein phosphorylation; assay type: cell-based, human; conditions: 30-minute treatment, 10 nmol/L insulin
# Description: At the end of all treatments, cells from quadruplicate cultures in each experimental group were lysed using NP40 cell lysis buffer (Invitrogen Corp.). Thirty micrograms of protein extracts from each sample was suspended in standard sample buffer, resolved on 4% to 12% gradient SDS-PAGE gels, transferred to nitrocellulose membranes, and subjected to Western blotting using antibodies.
# FoxO1 = FoxO1 binding to elastin gene promoter DNA probe (FRE) on DYNABEADS; assay type: cell-based, human
# Experimental: Cells were then scraped, and their nuclear extracts were pre-pared using an isolation kit (Active Motif, Inc.). […] The equal molar amounts of both single-stranded DNA oligonucleotides were annealed in Tris-EDTA buffer (10 mmol/L Tris-HCl, 1 mmol/L EDTA (pH 8.0)) to form the double-stranded DNA probe. […] All preparations were subsequently incubated for 2 hours in 200 μL binding buffer (50 mmol/L KCl, 10% glycerol, 20 mmol/L HEPES (pH 7.9), 1 mmol/L MgCl2, 1 mmol/L DTT, 0.1 μg poly(DI-DC) (polydeoxyinosinic-deoxycytidylic), and proteinase inhibitors). After binding, the beads were washed four times in the same binding buffer, without poly(DI-DC). The bound proteins were resolved using 8% SDS-PAGE and probed using Western blotting with the anti-FoxO1 monoclonal antibody.
# tropoelastin = assay: Metabolically labeled tropoelastin in cell extracts and conditioned media (secretion); assay type: cell-based, human; conditions: 10 nmol/L insulin, 1 hour
# Experimental: Cells were plated in 35-mm dishes at a density of 100,000 cells per dish and were grown to confluency. Two microcuries [3H]-valine per milliliter fresh medium supplemented with 2% FBS was added 2 hours before the indicated treatments. At the end of each experiment, the conditioned medium was collected and subjected to immunoprecipitation using anti-tropoelastin antibody. The cell layers were washed with PBS and incubated using radioimmunoprecipitation lysis buffer for 10 minutes on ice. After centrifugation, the supernatants were collected and subjected to immunoprecipitation using anti-tropoelastin antibody. […] Final results (counts per minute) reflecting the total amount of [3H]-valine-labeled insoluble elastin in individual cultures were normalized per their DNA contents (assessed using the Qiagen […] isolation) Tissue Kit) and expressed as percentage of control values. At the end of all treatments, cells from quadruplicate cultures in each experimental group were lysed using NP40 cell lysis buffer (Invitrogen Corp.). Thirty micrograms of protein extracts from each sample was suspended in standard sample buffer, resolved on 4% to 12% gradient SDS-PAGE gels, transferred to nitrocellulose membranes, and subjected to Western blotting using antibodies. At the end of indicated treatments, the cultured cells were lysed as described, and 300 μL aliquots of cell extracts containing […] were incubated at 4° C. for 3 hours with the aliquots of protein G bound DYNABEADS® (Invitrogen Corp.) that were conjugated with either rabbit polyclonal anti-tropoelastin, goat polyclonal anti-Glut10, or rabbit polyclonal anti-S-Gal antibodies. The beads carrying the final immunoprecipitation products were then washed with PBS, resuspended in sample buffer, and boiled for 5 minutes. The released proteins were then resolved on SDS-PAGE gel and subjected to Western blotting using indicated antibodies.
# [3] = after 2 hours [3H]-valine and BAPN, serum-free
# [4] = after 3 hours [3H]-valine and β-aminopropionitrile, 2% FBS
substance,measurement,setting,value
insulin,levels of metabolically labeled insoluble elastin,[1],up-regulated
same,deposition of immunodetectable fibronectin or collagen I,[2],did not reveal any up-regulation
same,phosphorylation of IGF-1R,IGF-1R,did not affect phosphorylation
same,site-specific phosphorylation of retinoblastoma protein on threonine 821,retinoblastoma protein,did not
same,binding of FoxO1 from nuclear extracts to elastin promoter FRE DNA probe,"FoxO1; AoSMCs treated 30 minutes with 10 nmol/L insulin, or preincubated with LY294002",could not sequester FoxO1; also recorded: could not bind FoxO1
same,reversal by insulin of FoxO1 binding to the probe in LY294002-treated cells,"FoxO1; LY294002 preincubation, consecutive insulin",could not reverse this interaction
same,immunodetected soluble tropoelastin in conditioned media vs untreated,tropoelastin; [3],significantly more
same,metabolically labeled soluble tropoelastin in cell extracts vs untreated,tropoelastin; [3],significantly less
same,less metabolically labeled tropoelastin in cell layer extracts than untreated controls,tropoelastin; [4],66%±6%
same,more metabolically labeled tropoelastin in conditioned media than untreated counterparts,tropoelastin; [4],94%±4%
